Data published in patent US20060029628A1, “Use of a volatile cooling sensate on fibrous tissues to provide a sensation of rhinological decongestion” (priority 2004, published 2006).

Assay: Vapour pressure of the pure substance
Assay type: physicochemical
Conditions: about 20° C.
Description: “Volatility” according to the present invention is considered to be present for substances having a liquid or sublimation vapour pressure of the pure substance at 20° C. of at least about 0.013 Pascal (0.0001 mmHg), or at least about 0.1 Pascal. Vapour pressure can be measured according to ASTM Standard E1194-01 of November 2001. In certain embodiments according to the present invention, an upper limit for the vapour pressure of pure material should be less than about 67 Pascal (0.5 mmHg), or less than about 13 Pascal (0.1 mmHg) each at 20° C. Evaluation of whether a composition does vaporize sufficiently can be made by a panel of at least five people or by vapour head evaluation, e.g. with gas chromatography.

vapour pressure: about 0.53 Pascal
vapour pressure (equivalent of the Pascal value): 0.004 mmHg
Structure (SMILES): CNC(=O)C(C)(C(C)C)C(C)C [WS-23, 2-Isopropyl-N,2,3-trimethylbutyramide]
